Laboratory results reported in patent publication US8299077B2 (Roche Palo Alto LLC, priority 2009, dated 2012).
pIC50: −log10 of the molar value.

test system: B cell receptor-mediated activation of B cells in human blood (CD69 expression); test: Inhibition of B cell activation in whole blood measured by CD69 expression; assay type: cell-based; settings: anti-IgM stimulation, 20 h, 50% decrease of CD69-positive cells that are also CD20-positive
Protocol: Inhibition of B Cell Activation in Whole Blood Measured by CD69 Expression
A procedure to test the ability of Btk inhibitors to suppress B cell receptor-mediated activation of B cells in human blood is as follows:
Human whole blood (HWB) is obtained from healthy volunteers, with the following restrictions: 24 hr drug-free, non-smokers. Blood is collected by venipuncture into Vacutainer tubes anticoagulated with sodium heparin. Test compounds are diluted to ten times the desired starting drug concentration in PBS (20×), followed by three-fold serial dilutions in 10% DMSO in PBS to produce a nine point dose-response curve. 5.5 μl of each compound dilution is added in duplicate to a 2 ml 96-well V bottom plate (Analytical Sales and Services, #59623-23); 5.5 μl of 10% DMSO in PBS is added to control and no-stimulus wells. HWB (100 μl) is added to each well, and after mixing the plates are incubated at 37 C, 5% CO2, 100% humidity for 30 minutes. Goat F(ab′)2 anti-human IgM (Southern Biotech, #2022-14) (10 μl of a 500 μg/ml solution, 50 μg/ml final concentration) is added to each well (except the no-stimulus wells) with mixing and the plates are incubated for an additional 20 hours.
At the end of the 20 hour incubation, samples are incubated with florescent-probe-labeled anti-bodies (15 μl PE Mouse anti-Human CD20, BD Pharmingen, #555623, and/or 20 ul APC Mouse anti-Human CD69, BD Pharmingen #555533) for 30 minutes, at 37 C, 5% CO2, 100% humidity. Included are induced control, unstained and single stains for compensation adjustments and initial voltage settings. Samples are then lysed with 1 ml of 1× Pharmingen Lyse Buffer (BD Pharmingen #555899), and plates are centrifuged at 1800 rpm for 5 minutes. Supernatants are removed via suction and the remaining pellets are lysed again with another 1 ml of 1× Pharmingen Lyse Buffer, and plates are spun down as before. Supernatants are aspirated and remaining pellets are washed in FACs buffer (PBS+1% FBS). After a final spin, the supernantants are removed and pellets are resuspended in 180 μl of FACs buffer. Samples are transferred to a 96 well plate suitable to be run on the HTS 96 well system on the BD LSR II flow cytometer.
Using appropriate excitation and emission wavelengths for the fluorophores used, data are acquired and percent positive cell values are obtained using Cell Quest Software. Results are initially analyzed by FACS analysis software (Flow Jo). […] The IC50 values are calculated using XLfit software version 3, equation 201.

Row | SMILES | pIC50
1 | Cn1cc(-c2cccc(-n3ncc4cc(C(C)(C)C)cc(F)c4c3=O)c2CO)cc(Nc2ccc(C(C)(C)C(=O)O)cn2)c1=O [Example I-20, 2-(6-{5-[3-(6-tert-Butyl-8-fluoro-1-oxo-1H-phthalazin-2-yl)-2-hydroxymethyl-phenyl]-1-methyl-2-oxo-1,2-dihydro-pyridin-3-ylamino}-pyridin-3-yl)-2-methyl-propionic acid] | 7.39
2 | CN1CCN(Cc2ccc(Nc3cc(-c4cccc(N5CCc6cc(C7CC7)cc(F)c6C5=O)c4CO)cn(C)c3=O)nc2)CC1 [Example I-11, 6-Cyclopropyl-8-fluoro-2-(2-hydroxymethyl-3-{1-methyl-5-[5-(4-methyl-piperazin-1-ylmethyl)-pyridin-2-ylamino]-6-oxo-1,6-dihydro-pyridin-3-yl}-phenyl)-3,4-dihydro-2H-isoquinolin-1-one] | 7.24
3 | Cn1cc(-c2cccc(-n3ncc4cc(C(C)(C)C)cc(F)c4c3=O)c2CO)cc(Nc2ccn(C(C)(C)C)c(=O)n2)c1=O [Example I-50, 6-tert-Butyl-2-{3-[5-(1-tert-butyl-2-oxo-1,2-dihydro-pyrimidin-4-ylamino)-1-methyl-6-oxo-1,6-dihydro-pyridin-3-yl]-2-hydroxymethyl-phenyl}-8-fluoro-2H-phthalazin-1-one] | 7.36
4 | Cn1cc(-c2cccc(-n3ncc4cc(C(C)(C)C)cc(F)c4c3=O)c2CO)cc(NC2=NCCCO2)c1=O [Example I-44, 6-tert-Butyl-2-{3-[5-(5,6-dihydro-4H-[1,3]oxazin-2-ylamino)-1-methyl-6-oxo-1,6-dihydro-pyridin-3-yl]-2-hydroxymethyl-phenyl}-8-fluoro-2H-phthalazin-1-one] | 5.76
5 | Cn1cc(-c2cccc(-n3ccc4cc(C5CC5)cc(F)c4c3=O)c2CO)cc(Nc2ccc(N3CCNCC3)cn2)c1=O [Example I-52, 6-Cyclopropyl-8-fluoro-2-{2-hydroxymethyl-3-[1-methyl-6-oxo-5-(5-piperazin-1-yl-pyridin-2-ylamino)-1,6-dihydro-pyridin-3-yl]-phenyl}-2H-isoquinolin-1-one] | 7.24
6 | Cn1cc(-c2cccc(-n3ncc4cc(C(C)(C)C)cc(F)c4c3=O)c2CO)cc(Nc2ccc(N3CCNCC3)cn2)c1=O [Example I-14, 6-tert-Butyl-8-fluoro-2-{2-hydroxymethyl-3-[1-methyl-6-oxo-5-(5-piperazin-1-yl-pyridin-2-ylamino)-1,6-dihydro-pyridin-3-yl]-phenyl}-2H-phthalazin-1-one] | 7.52
7 | Cn1cc(-c2cccc(-n3ncc4cc(C(C)(C)C)cc(F)c4c3=O)c2CO)cc(Nc2ccc(N3C[C@H]4CC[C@@H](C3)N4)cn2)c1=O [Example I-87, 6-tert-Butyl-2-(3-{5-[(1S,5R)-5-(3,8-diaza-bicyclo[3.2.1]oct-3-yl)-pyridin-2-ylamino]-1-methyl-6-oxo-1,6-dihydro-pyridin-3-yl}-2-hydroxymethyl-phenyl)-8-fluoro-2H-phthalazin-1-one] | 7.62
8 | Cn1cc(-c2cccc(-n3ccc4cc(C5CC5)cc(F)c4c3=O)c2CO)cc(Nc2ccc(S(C)(=O)=O)cn2)c1=O [Example I-62, 6-Cyclopropyl-8-fluoro-2-{2-hydroxymethyl-3-[5-(5-methanesulfonyl-pyridin-2-ylamino)-1-methyl-6-oxo-1,6-dihydro-pyridin-3-yl]-phenyl}-2H-isoquinolin-1-one] | 7.04
9 | Cn1cc(-c2cccc(-n3ncc4cc(C(C)(C)C)cc(F)c4c3=O)c2CO)cc(Nc2ccc(N3CC[N+](C)([O-])CC3)cn2)c1=O [Example I-45, 6-tert-Butyl-8-fluoro-2-(2-hydroxymethyl-3-{1-methyl-5-[5-(4-methyl-4-oxy-piperazin-1-yl)-pyridin-2-ylamino]-6-oxo-1,6-dihydro-pyridin-3-yl}-phenyl)-2H-phthalazin-1-one] | 5.65
10 | CCOCCNC(=O)C(C)(C)c1ccc(Nc2cc(-c3cccc(-n4ncc5cc(C(C)(C)C)cc(F)c5c4=O)c3CO)cn(C)c2=O)nc1 [Example I-29, 2-(6-{5-[3-(6-tert-Butyl-8-fluoro-1-oxo-1H-phthalazin-2-yl)-2-hydroxymethyl-phenyl]-1-methyl-2-oxo-1,2-dihydro-pyridin-3-ylamino}-pyridin-3-yl)-N-(2-ethoxy-ethyl)-isobutyramide] | 7.52
11 | Cn1cc(-c2cccc(-n3ncc4cc(C(C)(C)C)cc(F)c4c3=O)c2CO)cc(NC2=NCCO2)c1=O [Example I-40, 6-tert-Butyl-2-{3-[5-(4,5-dihydro-oxazol-2-ylamino)-1-methyl-6-oxo-1,6-dihydro-pyridin-3-yl]-2-hydroxymethyl-phenyl}-8-fluoro-2H-phthalazin-1-one] | 6.08

Compounds with a higher pIC50, results first:

Row | pIC50 | SMILES
12 | 7.66 | CN(C)C(=O)C(C)(C)c1ccc(Nc2cc(-c3cccc(-n4ccc5cc(C6CC6)cc(F)c5c4=O)c3CO)cn(C)c2=O)nc1 [Example I-70, 2-(6-{5-[3-(6-Cyclopropyl-8-fluoro-1-oxo-1H-isoquinolin-2-yl)-2-hydroxymethyl-phenyl]-1-methyl-2-oxo-1,2-dihydro-pyridin-3-ylamino}-pyridin-3-yl)-N,N-dimethyl-isobutyramide]
13 | 7.89 | CCn1cc(Nc2nc(-c3cccc(-n4ccc5cc(C(C)(C)O)cc(F)c5c4=O)c3CO)cn(C)c2=O)cn1 [Example I-81, 2-{3-[6-(1-Ethyl-1H-pyrazol-4-ylamino)-4-methyl-5-oxo-4,5-dihydro-pyrazin-2-yl]-2-hydroxymethyl-phenyl}-8-fluoro-6-(1-hydroxy-1-methyl-ethyl)-2H-isoquinolin-1-one]
14 | 7.96 | CN1CCN(c2ccc(Nc3cc(-c4cccc(-n5ccc6cc(N(C)C)cc(F)c6c5=O)c4CO)cn(C)c3=O)nc2)CC1 [Example I-4, 6-Dimethylamino-8-fluoro-2-(2-hydroxymethyl-3-{1-methyl-5-[5-(4-methyl-piperazin-1-yl)-pyridin-2-ylamino]-6-oxo-1,6-dihydro-pyridin-3-yl}-phenyl)-2H-isoquinolin-1-one]
15 | 8.00 | Cn1cc(-c2cccc(-n3ncc4cc(C(C)(C)C)cc(F)c4c3=O)c2CO)cc(Nc2ccc(N3CCC(C)(O)CC3)cn2)c1=O [Example I-17, 6-tert-Butyl-8-fluoro-2-{2-hydroxymethyl-3-[5-(4-hydroxy-4-methyl-3,4,5,6-tetrahydro-2H-[1,3′]bipyridinyl-6′-ylamino)-1-methyl-6-oxo-1,6-dihydro-pyridin-3-yl]-phenyl}-2H-phthalazin-1-one]
16 | 8.10 | COCCNCc1ccc(Nc2cc(-c3cccc(-n4ncc5cc(C(C)(C)C)cc(F)c5c4=O)c3CO)cn(C)c2=O)nc1 [Example I-39, 6-tert-Butyl-8-fluoro-2-[2-hydroxymethyl-3-(5-{5-[(2-methoxy-ethylamino)-methyl]-pyridin-2-ylamino}-1-methyl-6-oxo-1,6-dihydro-pyridin-3-yl)-phenyl]-2H-phthalazin-1-one]
17 | 8.22 | CCNCc1ccc(Nc2cc(-c3cccc(-n4ncc5cc(C(C)(C)C)cc(F)c5c4=O)c3CO)cn(C)c2=O)nc1 [Example I-42, 6-tert-Butyl-2-{3-[5-(5-ethylaminomethyl-pyridin-2-ylamino)-1-methyl-6-oxo-1,6-dihydro-pyridin-3-yl]-2-hydroxymethyl-phenyl}-8-fluoro-2H-phthalazin-1-one]
